System: human monocytes
Format: cell-based

## polymyxin B [reference compound]
  effect on IL-10 promotion when added to yeast rCFP32 or CF from WT and mutant Mtb: no effect

— patent US20050267025A1, “Compositions and methods for treatment of infectious and inflammatory diseases” (priority 2002, published 2005)
